{"source": "patent US20240408099A1", "about": "“COMBINATION […] OF KRAS G12D INHIBITORS WITH Pan ErbB FAMILY INHIBITORS” (MIRATI THERAPEUTICS, INC., priority 2021, published 2024)", "test_system": "HPAC cells", "assay": "HPAC TGI 73 pancreatic cancer xenograft, tumor volumes", "format": "in vivo, nude/nude mice", "conditions": "for Average Tumor Volumes: 30 mg/kg IP BID daily", "experimental": "Immunocompromised nude/nude mice are inoculated in the right hind flank with cells harboring a KRas G12D mutation. When tumor volumes reach between 200-400 mm^3 in size, the mice are divided into four to five groups of 5 mice each. The first group is administered vehicle only. […] The fourth or last groups are administered the single agent dose of the KRas G12D inhibitor using the twice daily schedule and/or the 2 sequential days followed by 5 days off schedule in combination with the single agent dose of one of the EGFR inhibitors. The treatment period varies from cell line to cell line but typically is between 15-40 days. Tumor volumes are measured using a caliper every two-three days and tumor volumes are calculated by the formula: […].\nExperimental Procedures. 20 nude/nude mice were inoculated with HPAC cells in the right hind flank. When the tumors reached ˜200 mm^3 four treatment groups were established with five mice per group."}
{"smiles": "C#Cc1c(F)ccc2cc(O)cc(-c3ncc4c(N5C[C@H]6CC[C@@H](C5)N6)nc(OC[C@@]56CCCN5C[C@H](F)C6)nc4c3F)c12", "note": "[MRTX1133, 4-(4-((1R,5S)-3,8-diazabicyclo[3.2.1]octan-3-yl)-8-fluoro-2-(((2R,7aS)-2-fluorohexahydro-1H-pyrrolizin-7a-yl)methoxy)pyrido[4,3-d]pyrimidin-7-yl)-5-ethynyl-6-fluoronaphthalen-2-ol]", "values": [{"measurement": "Average Tumor Volumes", "setting": "Study Day 0", "result": 196.76, "unit": "mm^3"}, {"measurement": "Average Tumor Volumes", "setting": "Study Day 3", "result": 149.646, "unit": "mm^3"}, {"measurement": "Average Tumor Volumes", "setting": "Study Day 7", "result": 107.504, "unit": "mm^3"}, {"measurement": "Average Tumor Volumes", "setting": "Study Day 10", "result": 99.742, "unit": "mm^3"}, {"measurement": "Average Tumor Volumes", "setting": "Study Day 14", "result": 91.818, "unit": "mm^3"}, {"measurement": "Average Tumor Volumes", "setting": "Study Day 17", "result": 93.348, "unit": "mm^3"}, {"measurement": "Average Tumor Volumes", "setting": "Study Day 21", "result": 74.006, "unit": "mm^3"}, {"measurement": "tumor regression", "setting": "30 mg/kg daily, single agent, Day 21", "result": "−62", "unit": "%"}]}
